Experiment [1] concerns MOLM-13 cells. Briefly: Cell viability assay (CellTiter-Glo) in MOLM-13 cells, alone or with gilteritinib. Type of experiment: cell-based. Conditions: Homo sapiens, MOLM-13 cells, three days, CellTiter-Glo. (ATP-based viability assays read luminescence as a measure of living cells.)
The subject of experiment [2] is MV4;11 cells. Briefly: Cell viability assay (CellTiter-Glo) in MV4;11 cells, alone or with gilteritinib. Type of experiment: cell-based. The conditions noted are these: Homo sapiens, MV4;11 cells, three days, CellTiter-Glo, read-out: MV4.
Where [3] appears, read: MOLM-13, 72 h, compound alone (without gilteritinib), read-out: MOLM-13 IC50.
The mark [4] stands for this setting: MOLM-13, 72 h, with gilteritinib 20 nM, read-out: MOLM-13 IC50 gilteritinib.
Where [5] appears, read: MV4-11, 72 h, compound alone (without gilteritinib), 11 IC50.
Setting [6] is: MV4-11, 72 h, with gilteritinib 10 nM, 11 IC50 gilteritinib.

Read-outs that look alike come from different tables or passages of the source.

Regarding `CN(c1ccc2[nH]ccc2n1)C1CCN(CC(=O)NCCNc2ccc3c(c2)C(=O)N(C2CCC(=O)NC2=O)C3=O)CC1` (centres unmarked) [GS-322, N-(2-((2-(2,6-Dioxopiperidin-3-yl)-1,3-dioxoisoindolin-5-yl)amino)ethyl)-2-(4-(methyl(1H-pyrrolo[3,2-b]pyridin-5-yl)amino)piperidin-1-yl)acetamide], the IC50 in experiment [1] (setting [3]), in experiment [1] (setting [4]), in experiment [2] (setting [5]) and in experiment [2] (setting [6]) was above 1000 nM throughout.

In the case of `O=C1CCC(N2C(=O)c3ccc(NCCCCC(=O)N4CCC(n5cc(-c6cnc7ccccc7n6)cn5)CC4)cc3C2=O)C(=O)N1` (centres unmarked) [GS-323, 2-(2,6-Dioxopiperidin-3-yl)-5-((5-oxo-5-(4-(4-(quinoxalin-2-yl)-1H-pyrazol-1-yl)piperidin-1-yl)pentyl)amino)isoindoline-1,3-dione], the IC50 was above 1000 nM in experiment [1] (setting [3]), below 10 nM in experiment [1] (setting [4]), 100 to 1000 nM in experiment [2] (setting [5]) and below 10 nM in experiment [2] (setting [6]).

Consider `O=C1CCC(N2C(=O)c3ccc(NCCOCCC(=O)N4CCC(n5cc(-c6cnc7ccccc7n6)cn5)CC4)cc3C2=O)C(=O)N1` (centres unmarked) [GS-324, 2-(2,6-Dioxopiperidin-3-yl)-5-((2-(3-oxo-3-(4-(4-(quinoxalin-2-yl)-1H-pyrazol-1-yl)piperidin-1-yl)propoxy)ethyl)amino)isoindoline-1,3-dione], for which the IC50 in experiment [1] (setting [3]) is above 1000 nM; in experiment [1] (setting [4]) it was 10 to 100 nM; in experiment [2] (setting [5]), above 1000 nM; in experiment [2] (setting [6]), 100 to 1000 nM.

For `O=C1CCC(N2C(=O)c3ccc(NC(=O)CCCCC(=O)N4CCC(n5cc(-c6cnc7ccccc7n6)cn5)CC4)cc3C2=O)C(=O)N1` (centres unmarked) [GS-325, N-(2-(2,6-Dioxopiperidin-3-yl)-1,3-dioxoisoindolin-5-yl)-6-oxo-6-(4-(4-(quinoxalin-2-yl)-1H-pyrazol-1-yl)piperidin-1-yl)hexanamide], the IC50 is above 1000 nM in experiment [1] (setting [3]), 100 to 1000 nM in experiment [1] (setting [4]), above 1000 nM in experiment [2] (setting [5]) and 100 to 1000 nM in experiment [2] (setting [6]).

As to `O=C1CCC(N2C(=O)c3ccc(NCCCCCCN4CCC(n5cc(-c6cnc7ccccc7n6)cn5)CC4)cc3C2=O)C(=O)N1` (centres unmarked) [GS-326, 2-(2,6-Dioxopiperidin-3-yl)-5-((6-(4-(4-(quinoxalin-2-yl)-1H-pyrazol-1-yl)piperidin-1-yl)hexyl)amino)isoindoline-1,3-dione], the IC50 in experiment [1] (setting [3]) was above 1000 nM; in experiment [1] (setting [4]), 100 to 1000 nM; in experiment [2] (setting [5]), above 1000 nM; in experiment [2] (setting [6]), above 1000 nM.

`O=C1CCC(N2C(=O)c3ccc(NC(=O)CCCC(=O)N4CCC(n5cc(-c6cnc7ccccc7n6)cn5)CC4)cc3C2=O)C(=O)N1` (centres unmarked) [GS-327, N-(2-(2,6-Dioxopiperidin-3-yl)-1,3-dioxoisoindolin-5-yl)-5-oxo-5-(4-(4-(quinoxalin-2-yl)-1H-pyrazol-1-yl)piperidin-1-yl)pentanamide]: the IC50 in experiment [1] (setting [3]) is above 1000 nM; in experiment [1] (setting [4]) it was above 1000 nM; in experiment [2] (setting [5]) it was above 1000 nM; in experiment [2] (setting [6]) it was 100 to 1000 nM.

Regarding `O=C1CCC(N2C(=O)c3ccc(NCCC[C@H]4C[C@H](n5cc(-c6cc(Cl)ccn6)cn5)C4)cc3C2=O)C(=O)N1` (stereo partly drawn) [GS-328, 5-((3-(trans-3-(4-(4-Chloropyridin-2-yl)-1H-pyrazol-1-yl)cyclobutyl)propyl)amino)-2-(2,6-dioxopiperidin-3-yl)isoindoline-1,3-dione], the IC50 is above 1000 nM in experiment [1] (setting [3]), 10 to 100 nM in experiment [1] (setting [4]), 100 to 1000 nM in experiment [2] (setting [5]) and 10 to 100 nM in experiment [2] (setting [6]).

Regarding `O=C1CCC(N2Cc3cc(OCCCCCC(=O)N4CCN(c5ccccc5)CC4)ccc3C2=O)C(=O)N1` (centres unmarked) [GS-329, 3-(1-Oxo-5-((6-oxo-6-(4-phenylpiperazin-1-yl)hexyl)oxy)isoindolin-2-yl)piperidine-2,6-dione], the IC50 is above 1000 nM in experiment [1] (72 h, compound alone (without gilteritinib), read-out: MOLM-13 IC50); 100 to 1000 nM in experiment [1] (72 h, with gilteritinib 20 nM, read-out: MOLM-13 IC50 gilteritinib); above 1000 nM in experiment [2] (72 h, compound alone (without gilteritinib), 11 IC50); above 1000 nM in experiment [2] (72 h, with gilteritinib 10 nM, 11 IC50 gilteritinib).

In the case of `O=C1CCC(N2C(=O)c3ccc(NC(=O)COCCC(=O)N4CCC(n5cc(-c6cnc7ccccc7n6)cn5)CC4)cc3C2=O)C(=O)N1` (centres unmarked) [GS-330, N-(2-(2,6-Dioxopiperidin-3-yl)-1,3-dioxoisoindolin-5-yl)-2-(3-oxo-3-(4-(4-(quinoxalin-2-yl)-1H-pyrazol-1-yl)piperidin-1-yl)propoxy)acetamide], the IC50 in experiment [1] (setting [3]), in experiment [1] (setting [4]), in experiment [2] (setting [5]) and in experiment [2] (setting [6]) was above 1000 nM each time.

As for `O=C1CCC(N2C(=O)c3ccc(NCCCCCCN4CCC(O)CC4)cc3C2=O)C(=O)N1` (centres unmarked) [GS-331, 2-(2,6-Dioxopiperidin-3-yl)-5-((6-(4-hydroxypiperidin-1-yl)hexyl)amino)isoindoline-1,3-dione], the IC50 in experiment [1] (setting [3]) was above 1000 nM; in experiment [1] (setting [4]), 100 to 1000 nM; in experiment [2] (setting [5]), above 1000 nM; in experiment [2] (setting [6]), above 1000 nM.

For the compound `O=C(CN1CCC(N2CCN(c3ccccn3)CC2)C1)NCc1ccc2c(c1)C(=O)N(C1CCC(=O)NC1=O)C2=O` (centres unmarked) [GS-332, N-((2-(2,6-Dioxopiperidin-3-yl)-1,3-dioxoisoindolin-5-yl)methyl)-2-(3-(4-(pyridin-2-yl)piperazin-1-yl)pyrrolidin-1-yl)acetamide], the IC50 in experiment [1] (setting [3]), in experiment [1] (setting [4]), in experiment [2] (setting [5]) and in experiment [2] (setting [6]) was above 1000 nM each time.

As for `O=C1CCC(N2C(=O)c3ccc(NCCCCCC(=O)N4CCC(O)(c5ccccc5)CC4)cc3C2=O)C(=O)N1` (centres unmarked) [GS-333, 2-(2,6-Dioxopiperidin-3-yl)-5-((6-(4-hydroxy-4-phenylpiperidin-1-yl)-6-oxohexyl)amino)isoindoline-1,3-dione], the IC50 in experiment [1] (setting [3]) was above 1000 nM; in experiment [1] (setting [4]), 100 to 1000 nM; in experiment [2] (setting [5]), above 1000 nM; in experiment [2] (setting [6]), 100 to 1000 nM.

In the case of `O=C1CCC(N2C(=O)c3ccc(NCCCCCC(=O)N4CC(Oc5ccccc5)C4)cc3C2=O)C(=O)N1` (centres unmarked) [GS-334, 2-(2,6-Dioxopiperidin-3-yl)-5-((6-oxo-6-(3-phenoxyazetidin-1-yl)hexyl)amino)isoindoline-1,3-dione], the IC50 in experiment [1] (setting [3]) is above 1000 nM; in experiment [1] (setting [4]), 100 to 1000 nM; in experiment [2] (setting [5]), above 1000 nM; in experiment [2] (setting [6]) it was above 1000 nM.

With `O=C1CCC(N2C(=O)c3ccc(NCCCCCCN4CCC(C5CCC(O)CC5)CC4)cc3C2=O)C(=O)N1` (centres unmarked) [GS-335, 2-(2,6-Dioxopiperidin-3-yl)-5-((6-(4-(4-hydroxycyclohexyl)piperidin-1-yl)hexyl)amino)isoindoline-1,3-dione], the IC50 was above 1000 nM in experiment [1] (setting [3]), 100 to 1000 nM in experiment [1] (setting [4]), above 1000 nM in experiment [2] (setting [5]) and above 1000 nM in experiment [2] (setting [6]).

Turning to `O=C1CCC(N2C(=O)c3ccc(NCCCCCC(=O)N4CC(Nc5ccccc5)C4)cc3C2=O)C(=O)N1` (centres unmarked) [GS-336, 2-(2,6-Dioxopiperidin-3-yl)-5-((6-oxo-6-(3-(phenylamino)azetidin-1-yl)hexyl)amino)isoindoline-1,3-dione], the IC50 in experiment [1] (setting [3]), in experiment [1] (setting [4]), in experiment [2] (setting [5]) and in experiment [2] (setting [6]) was above 1000 nM in each case.

For `CN(c1ccccc1)C1CN(C(=O)CCCCCNc2ccc3c(c2)C(=O)N(C2CCC(=O)NC2=O)C3=O)C1` (centres unmarked) [GS-337, 2-(2,6-Dioxopiperidin-3-yl)-5-((6-(3-(methyl(phenyl)amino)azetidin-1-yl)-6-oxohexyl)amino)isoindoline-1,3-dione], the IC50 in experiment [1] (setting [3]) was above 1000 nM; in experiment [1] (setting [4]) it was 100 to 1000 nM; in experiment [2] (setting [5]) it was above 1000 nM; in experiment [2] (setting [6]), above 1000 nM.

Consider `O=C1CCC(N2C(=O)c3ccc(NCCCCCCn4cc(-c5cnc6ccccc6n5)cn4)cc3C2=O)C(=O)N1` (centres unmarked) [GS-339, 2-(2,6-Dioxopiperidin-3-yl)-5-((6-(4-(quinoxalin-2-yl)-1H-pyrazol-1-yl)hexyl)amino)isoindoline-1,3-dione], for which the IC50 is above 1000 nM in experiment [1] (setting [3]), 10 to 100 nM in experiment [1] (setting [4]), 100 to 1000 nM in experiment [2] (setting [5]) and below 10 nM in experiment [2] (setting [6]).

Take `O=C1CCC(N2C(=O)c3ccc(CNC(=O)C(F)(F)c4cccc(-n5cc(-c6cnc7ccccc7n6)cn5)c4)cc3C2=O)C(=O)N1` (centres unmarked) [GS-340, N-((2-(2,6-Dioxopiperidin-3-yl)-1,3-dioxoisoindolin-5-yl)methyl)-2,2-difluoro-2-(3-(4-(quinoxalin-2-yl)-1H-pyrazol-1-yl)phenyl)acetamide]: the IC50 was above 1000 nM in experiment [1] (setting [3]), above 1000 nM in experiment [1] (setting [4]), 100 to 1000 nM in experiment [2] (setting [5]) and above 1000 nM in experiment [2] (setting [6]).

For the compound `COc1ccnc(-c2cnn([C@H]3C[C@H](CCCNc4ccc5c(c4)C(=O)N(C4CCC(=O)NC4=O)C5=O)C3)c2)c1` (stereo partly drawn) [GS-341, 2-(2,6-Dioxopiperidin-3-yl)-5-((3-(trans-3-(4-(4-methoxypyridin-2-yl)-1H-pyrazol-1-yl)cyclobutyl)propyl)amino)isoindoline-1,3-dione], the IC50 was 100 to 1000 nM in experiment [1] (setting [3]), 10 to 100 nM in experiment [1] (setting [4]), 10 to 100 nM in experiment [2] (setting [5]) and below 10 nM in experiment [2] (setting [6]).

With `O=C1CCC(N2C(=O)c3ccc(NC(=O)COCC(=O)N4CCC(n5cc(-c6cnc7ccccc7n6)cn5)CC4)cc3C2=O)C(=O)N1` (centres unmarked) [GS-342, N-(2-(2,6-Dioxopiperidin-3-yl)-1,3-dioxoisoindolin-5-yl)-2-(2-oxo-2-(4-(4-(quinoxalin-2-yl)-1H-pyrazol-1-yl)piperidin-1-yl)ethoxy)acetamide], the IC50 in experiment [1] (setting [3]), in experiment [1] (setting [4]), in experiment [2] (setting [5]) and in experiment [2] (setting [6]) was above 1000 nM throughout.

Values taken from patent US20240050428A1 (Cullgen (Shanghai), Inc., priority 2020, published 2024).
